According to PMC6314990 (Forensic Toxicology, 2018):

What was measured:
[1] = target: CB1 receptor (Mus musculus, UniProt P47746)
Description: Crude synaptic membranes from ddY male mice brains were prepared according to the method of Zukin et al. [32] with a slight modification. Briefly, whole mice brains were homogenized in 15 volumes of ice-cold 0.32 M sucrose for 1 min with a Polytron homogenizer (Kinematica, Lucerne, Switzerland), followed by centrifugation at 1000 g for 10 min at 4 °C. The pellet was discarded and the supernatant was centrifuged at 20000g for 20 min at 4 °C. This pellet was homogenized for 15 s in 40 volumes of ice-cold distilled water and further dispersed with a Polytron homogenizer. The suspension was then centrifuged at 8000g for 20 min at 4 °C. The supernatant and the soft buffy upper layer of the pellet were carefully collected and combined. This fraction was then centrifuged at 48000g for 20 min at 4 °C.
A ligand binding assay for the cannabinoid receptor was performed according to the method of Devane et al. [34] and Compton et al. [16]. […] The filters were then placed in glass scintillation vials with 10 ml of Clearsol and the radioactivity was counted using a liquid scintillation counter (LSC-6100, Aloka, Tokyo, Japan). […] The inhibitory constant (Ki value) was calculated according to the method of Speth et al. [35].

[2] = system: pentobarbital-induced sleep in mice; assay: Cannabinoid-induced potentiation of pentobarbital-induced sleep and effect of CB1 receptor antagonists; assay type: in vivo, ddY mice; conditions: for Prolongation of pentobarbital-induced sleep compared with vehicle-pretreated group (Veh + Veh): cannabinoid 10 mg/kg i.v., pentobarbital 40 mg/kg i.p. 15 min later, male ddY mice, n = 8
Description: For the pharmacological studies, cannabinoids and antagonists were suspended in saline containing 1% Tween 80. Sodium pentobarbital was dissolved in saline and injected intraperitoneally (i.p.; 40 mg/kg) for the mice. Male ddY mice weighing 20–25 g were housed in groups of 8. All animals were kept in a temperature-controlled (25 °C) environment with a 12-h light–dark cycle (lights on at 7:00 a.m.) and received food and water ad libitum. […] One percent Tween 80-saline solution was injected instead of cannabinoids or antagonists for the vehicle treated group as a control.

Chain of CB1 receptor (P47746 whole entry): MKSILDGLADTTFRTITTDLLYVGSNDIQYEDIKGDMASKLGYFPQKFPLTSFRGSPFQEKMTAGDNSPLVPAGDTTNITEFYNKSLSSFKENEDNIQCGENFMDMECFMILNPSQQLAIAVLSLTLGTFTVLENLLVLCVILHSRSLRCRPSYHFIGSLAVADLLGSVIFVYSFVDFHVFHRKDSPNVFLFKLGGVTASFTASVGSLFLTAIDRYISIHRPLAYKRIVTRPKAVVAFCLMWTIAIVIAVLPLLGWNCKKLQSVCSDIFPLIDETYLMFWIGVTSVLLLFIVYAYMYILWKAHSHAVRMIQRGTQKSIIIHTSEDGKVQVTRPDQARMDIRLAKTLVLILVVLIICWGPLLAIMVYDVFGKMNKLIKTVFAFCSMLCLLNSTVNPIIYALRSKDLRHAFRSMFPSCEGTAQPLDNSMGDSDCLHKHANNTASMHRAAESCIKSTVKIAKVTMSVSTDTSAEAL

CCCC(C)C1(CC)C(=O)NC(=O)NC1=O (stereo not shown) [Pentobarbital, sodium pentobarbital]
Specific [3H]CP55940 binding ([1]; pentobarbital 1 mM added to the reaction mixture, control 0.055 ± 0.002, N.S. vs control): 0.050 ± 0.003 ^N.S. pmol/mg protein | Effect on specific [3H]CP55940 binding ([1]; pentobarbital 1 mM, mouse brain synaptic membrane): did not affect specific [^3H]CP55940 binding

C=C(C)[C@@H]1CCC(C)=C[C@H]1c1c(O)cc(CCCCC)cc1O [CBD, cannabidiol]
Prolongation of pentobarbital-induced sleep compared with vehicle-pretreated group (Veh + Veh) [2]: 1.8 fold

CCCCCc1cc(O)c2c(c1)OC(C)(C)[C@@H]1CCC(C)=CC21 (stereo partly shown) [∆^9-THC, ∆^9-tetrahydrocannabinol]
Prolongation of pentobarbital-induced sleep compared with vehicle-pretreated group (Veh + Veh) [2]: 3.3 fold

Cc1c(C(=O)NN2CCCCC2)nn(-c2ccc(Cl)cc2Cl)c1-c1ccc(I)cc1 [AM251, N-(piperidin-1-yl)-5-(4-iodophenyl)-1-(2,4-dichlorophenyl)-4-methyl-1H-pyrazole-3-carboxamide]
Effect of antagonist on potentiating effect of ∆9-THC on pentobarbital-induced sleep, low dose ([2]; antagonist 2 mg/kg i.v., ∆9-THC 10 mg/kg i.v., pentobarbital 40 mg/kg i.p., mice): attenuated | Effect of antagonist pretreatment on potentiation of pentobarbital-induced sleep by ∆9-THC ([2]; antagonist 2–10 mg/kg i.v. 10 min before ∆9-THC 10 mg/kg i.v., pentobarbital 40 mg/kg i.p., mice): decreased dose-dependently | Effect of antagonist alone (antagonist + Veh) on pentobarbital-induced sleeping time ([2]; without ∆9-THC, pentobarbital 40 mg/kg i.p., mice): no change in pentobarbital-induced sleeping time
